Experimental data taken from patent publication US6495571B1, “Pyridine compounds, use and preparation thereof” (Southern Research Institute, priority 1999, dated 2002).
Like-named read-outs stand apart in the source and are kept apart here. Marks after values point to notes of the source that are not given here.

Key:
[1] = tested on: human MX-1 mammary tumor (sc, 30-40 mg fragments); assay: In vivo antitumor activity, s.c.-implanted MX-1 xenograft; parameters: species or system Athymic mice (Ncr-nu); settings: for antitumor activity (in words): MX-1 implanted s.c. or i.c.; for IP dosage marked (LD50): Days 12-16, sc MX-1 bearing mice
[2] = tested on: human MX-1 mammary tumor (ic, 10^6 cells); assay: In vivo antitumor activity, i.c.-implanted MX-1 xenograft; settings: for Median % ILS (dying mice only) / Tumor-Free-Surv/Total: Days 1-5; for activity against i.c.-implanted tumor (in words): in comparison to PEN and DM-PEN; for Median % ILS (based on dying mice only) / Survivors: optimal doses (LD10 or less), schedule QD1-5, administered LP.
P388/0 murine leukemia = settings: Q1D × 1 (1)
[3] = tested on: P388/BCNU (carmustine-resistant) leukemia; assay: Antitumor activity against IP-implanted P388/BCNU leukemia; settings: Q1D × 1 (1)
[4] = tested on: P388/L-PAM (melphalan-resistant) leukemia; settings: Q1D × 1 (1)
cancer = assay: Anti-cancer activity (test not specified)
[5] = oral (gavage) 135 mg/kg/dose, Days 13-17
[6] = oral (gavage) 135 mg/kg/dose, Days 12-16

## COc1nc(C(Cl)(Cl)Cl)c(Cl)c(OC(=O)c2ccccc2)c1Cl [DM-B-PEN]
[1]; IP 135 mg/kg/dose, Days 11-15
  T-C: >42.7 days
  Tumor-Free-Surv/Total: 5/5
[1]; i.p. administration
  antitumor activity (in words): high activity
[1]; oral drug treatment
  antitumor activity (in words): low antitumor activity
[1]; inferred from MX-1 results (s.c. or i.c.), oral treatment
  oral absorption (in words): oral absorption was poor
[1]; [5]
  T-C: -1.4 days
  Tumor-Free-Surv/Total: 0/5
[2]; IP 335 mg/kg/dose
  Median % ILS (dying mice only): +84%
  Tumor-Free-Surv/Total: 0/5
[2]; oral (gavage) 135 mg/kg/dose
  Median % ILS (dying mice only): +12%
  Tumor-Free-Surv/Total: 0/5

## O=NN(CCCl)C(=O)NCCCl [BCNU (carmustine), carmustine]
P388/0 murine leukemia; IP 20.0 mg/kg/dose
  50-DAY SURV./TOTAL: 3/6
P388/0 murine leukemia; IP 30.0 mg/kg/dose
  50-DAY SURV./TOTAL: 6/6
[3]; IP 20.0 mg/kg/dose
  50-DAY SURV./TOTAL: 0/6
  % ILS: 0%
[3]; IP 30.0 mg/kg/dose
  50-DAY SURV./TOTAL: 0/6
  % ILS: −6%
  MEDIAN DAY OF DEATH: 8.5

## CCCCCCCC(=O)Oc1c(Cl)c(OC)nc(C(Cl)(Cl)Cl)c1Cl [DM-O-PEN]
[2]; IP 90 mg/kg/dose
  Median % ILS (dying mice only): +121%
  Tumor-Free-Surv/Total: 0/5
[2]
  activity against i.c.-implanted tumor (in words): significant activity
  Median % ILS (based on dying mice only): 121^b %
  Survivors: 0/5

## COc1nc(C(Cl)(Cl)Cl)c(Cl)c(OC(=O)CCl)c1Cl [DM-CA-PEN]
[1]; IP 60 mg/kg/dose, Days 12-16
  T-C: >41.0 days
  Tumor-Free-Surv/Total: 3/5
[1]; [6]
  T-C: >41.0 days
  Tumor-Free-Surv/Total: 5/5
[2]; oral (gavage) 135 mg/kg/dose
  Median % ILS (dying mice only): +84%
  Tumor-Free-Surv/Total: 2/5

## COCC(=O)Oc1c(Cl)c(OC)nc(C(Cl)(Cl)Cl)c1Cl [DM-MA-PEN]
[1]; [6]
  T-C: >41.0 days
  Tumor-Free-Surv/Total: 5/5
[2]; IP 90 mg/kg/dose
  Median % ILS (dying mice only): +125%
  Tumor-Free-Surv/Total: 1/5
[2]
  activity against i.c.-implanted tumor (in words): significant activity
  Median % ILS (based on dying mice only): 126^a %
  Survivors: 1/5
[2]; oral (gavage) 90 mg/kg/dose
  Median % ILS (dying mice only): +110%
  Tumor-Free-Surv/Total: 1/5

## COc1nc(C(Cl)(Cl)Cl)c(Cl)c(OC(=O)c2ccncc2)c1Cl [DM-IN-PEN]
[1]; IP 90 mg/kg/dose, Days 12-16
  T-C: >38.6 days
  Tumor-Free-Surv/Total: 3/5
[1]
  IP dosage marked (LD50): 90 (LD50) mg/kg/dose

## COc1nc(C(Cl)(Cl)Cl)c(Cl)c(OC(=O)c2ccc(CCl)cc2)c1Cl [DM-CMB-PEN]
[2]; IP 90 mg/kg/dose
  Median % ILS (dying mice only): +73%
  Tumor-Free-Surv/Total: 0/5

## COc1nc(C(Cl)(Cl)Cl)c(Cl)c(OC(=O)c2ccc([N+](=O)[O-])cc2)c1Cl [DM-NB-PEN]
[1]; IP 135 mg/kg/dose, Days 12-16
  T-C: >38.6 days
  Tumor-Free-Surv/Total: 5/5

## COc1nc(C(Cl)(Cl)Cl)c(Cl)c(OC(=O)CI)c1Cl [DM-IA-PEN]
[1]; IP 60 mg/kg/dose, Days 12-16
  T-C: 20.3 days
  Tumor-Free-Surv/Total: 1/5
[1]
  IP dosage marked (LD50): 60 (LD50) mg/kg/dose

## N[C@@H](Cc1ccc(N(CCCl)CCCl)cc1)C(=O)O [L-PAM (melphalan), melphalan]
[4]; IP 15.0 mg/kg/dose
  50-DAY SURV./TOTAL: 0/6
  % ILS: +14%
  APPROX. NET LOG10 CHANGE IN TUMOR BURDEN AT END OF Rx: −1.8
  MEDIAN DAY OF DEATH: 18.0
[4]; IP 20.0 mg/kg/dose
  50-DAY SURV./TOTAL: 0/6
  % ILS: +14%
  APPROX. NET LOG10 CHANGE IN TUMOR BURDEN AT END OF Rx: −1.8
  MEDIAN DAY OF DEATH: 18.0
P388/0 murine leukemia; IP 15.0 mg/kg/dose
  50-DAY SURV./TOTAL: 6/6
P388/0 murine leukemia; IP 20.0 mg/kg/dose
  50-DAY SURV./TOTAL: 5/6
  % ILS: +208%
  APPROX. NET LOG10 CHANGE IN TUMOR BURDEN AT END OF Rx: ca −6.8
  MEDIAN DAY OF DEATH: 34.0

## COc1nc(C(Cl)(Cl)Cl)c(Cl)c(OC(=O)CBr)c1Cl [DM-BA-PEN]
[1]; IP 135 mg/kg/dose, Days 12-16
  T-C: >41.0 days
  Tumor-Free-Surv/Total: 2/5

## CCOc1c(Cl)c(OC)nc(C(Cl)(Cl)Cl)c1Cl [3,5-dichloro-4-ethoxy-6-methoxy-2-(trichloromethyl)pyridine]
cancer
  anti-cancer activity (in words): active anti-cancer activity

## COc1nc(C(Cl)(Cl)Cl)c(Cl)c(OC(=O)c2cccs2)c1Cl [DM-TC-PEN]
[1]; IP 90 mg/kg/dose, Days 12-16
  T-C: >41.2 days
  Tumor-Free-Surv/Total: 4/5
[2]; IP 135 mg/kg/dose
  Median % ILS (dying mice only): +100%
  Tumor-Free-Surv/Total: 0/5
[2]
  activity against i.c.-implanted tumor (in words): significant activity
  Median % ILS (based on dying mice only): 100^d %
  Survivors: 0/5
